According to PMC9804470, “A Formylglycine‐Peptide for the Site‐Directed Identification of Phosphotyrosine‐Mimetic Fragments” (Chemistry (Weinheim an Der Bergstrasse, Germany), 2022):
“Also recorded” adds a separate entry of the source. Like-named read-outs stand apart in the source and are kept apart here. *1 amine or outer side, *2 acyl side, *3 side chain or, on linkers, in order; H or OH if unused. Where a SMILES comes first, the peptide text is derived from it. [ ]: non-standard residue; d: D form. The star is where a group is joined. ξ: configuration not given here. F2Pmp = N[C@@H](Cc1ccc(C(F)(F)P(=O)(O)O)cc1)C(=O)O; X3 = O=C1NC(=O)C(CC(N[*:1])C(=O)[*:2])C(=O)N1; X4 = O=S(=O)(Nc1ccc(*)cc1)C(F)(F)F; X2 = O=C(O)COc1ccc(*)cc1; X1 = O=C(O)Cc1ccc(*)cc1; Dap = NC[C@H](N)C(=O)O; ξDap = NCC(N)C(=O)O

How the values were obtained:
[1] = biological target: T1, catalytic domain of human PTP1B (Homo sapiens, UniProt P18031); assay: Enzyme activity assay of PTP1B with fluorogenic substrate DiFMUP; format: biochemical; details: SD
T1 construct: catalytic domain of human PTP1B (amino acids 1–321); His7 (N, cleaved yes); made in house; host or cells: E. coli Rosetta (DE3)
T1 sequence (P18031 1-321): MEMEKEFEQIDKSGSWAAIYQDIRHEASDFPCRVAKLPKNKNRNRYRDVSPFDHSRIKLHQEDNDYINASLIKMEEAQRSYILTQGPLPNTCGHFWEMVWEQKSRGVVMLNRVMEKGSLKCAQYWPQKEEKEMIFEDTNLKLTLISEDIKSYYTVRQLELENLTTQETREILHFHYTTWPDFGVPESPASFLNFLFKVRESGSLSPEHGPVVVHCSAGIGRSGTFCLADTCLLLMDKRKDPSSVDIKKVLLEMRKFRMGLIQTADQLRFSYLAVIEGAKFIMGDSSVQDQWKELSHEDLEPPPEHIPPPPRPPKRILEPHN
Description: Protein Expression and purification: DNA encoding the catalytic domain of human PTP1B (amino acids 1–321) was subcloned into the pQLinkH vector. The gene encoding the N‐terminal His7‐tagged protein was over‐expressed at 17 °C in E. coli Rosetta (DE3). […] The His7‐tag was cleaved with tobacco etch virus protease at 20 °C prior to the gel‐filtration step. The catalytic domain of human SHP2 (amino acids 225–541) was purified from E. coli B21 (DE3). The overexpressed protein was fused to an N‐terminal His10‐tag. Cells were harvested and resuspended in 25 mM Tris‐HCl (pH=7.5), 50 mM NaCl, 1 % (v/v) Triton X‐100, 10 % (v/v) glycerol, 1 mM DTT. After cell lysis, debris was removed by centrifugation at 12,000 rpm for 30 min. The supernatant was filtered prior to affinity purification with Ni‐NTA agarose (Qiagen). The slurry was washed with 50 mM Tris‐HCl (pH=8.0), 500 mM NaCl supplemented with 25 mM imidazole. Reasonably pure protein was eluted with 200–300 mM imidazole. The purification was completed by size‐exclusion chromatography with a Superdex 75 16/600 column (GE Healthcare) equilibrated with 20 mM HEPES‐NaOH (pH=7.5), 50 mM NaCl, 1 mM DTT.
(§1) Enzyme activity assays of SHP2 and PTP1B: The catalytic activity of SHP2 catalytic domain and PTP1B were monitored using the fluorogenic substrate DiFMUP (6,8‐difluoro‐4‐methylumbelliferyl phosphate). Phosphatase reactions were performed at room temperature in 384‐well black plate, clear flat bottom, low flange, non‐binding surface (Corning, Cat# 3766) using a final volume of 20 μL and the following assay buffer conditions: 50 mM MOPS, pH=6.5, 200 mM NaCl, 50 μM TCEP, 0.03 % Tween‐20 (freshly added prior to each measurement). Test compounds were dissolved in DMSO or buffer at stock concentrations of 50, 20 or 10 mM and serially diluted. Enzyme (5 nM PTP1B or 2.5 nM SHP2 catalytic domain) and different concentrations of the tested compounds were incubated in buffer for 30–60 min at room temperature. Measurements were performed with a final concentration of 2.5 % DMSO unless stated otherwise at 37 °C and were performed in triplicate. Enzymatic reactions were started by adding DiFMUP (Invitrogen, cat# D6567) concentrations matching the experimentally determined KM values of the enzymes of 67 μM (PTP1B) or 72 μM (SHP2). Samples were excited at a wavelength of 360 nm and emitted fluorescence was recorded at 460 for 10 min using a microplate reader (infinite M1000 Pro, Tecan). Initial slope of fluorescence was determined in triplicate and IC50 values were calculated with GraphPad Prism 5. Determined IC50 values were converted into the corresponding KI values applying the Cheng Prusoff equation KI =IC50 /(1+[S]/KM ).

[2] = biological target: T2, catalytic domain of human SHP2 (Homo sapiens, UniProt Q06124); assay: Enzyme activity assay of SHP2 catalytic domain with fluorogenic substrate DiFMUP; format: biochemical; details: DiFMUP 72 μM (= KM), enzyme 1.5 nM, triplicate; from IC50 by Cheng-Prusoff (IC50/2); read-out: KI SHP2 (Table 2, footnote a)
T2 construct: catalytic domain of human SHP2 (amino acids 225–541); His10 (N); made in house; host or cells: E. coli B21 (DE3)
T2 sequence (Q06124 225-541): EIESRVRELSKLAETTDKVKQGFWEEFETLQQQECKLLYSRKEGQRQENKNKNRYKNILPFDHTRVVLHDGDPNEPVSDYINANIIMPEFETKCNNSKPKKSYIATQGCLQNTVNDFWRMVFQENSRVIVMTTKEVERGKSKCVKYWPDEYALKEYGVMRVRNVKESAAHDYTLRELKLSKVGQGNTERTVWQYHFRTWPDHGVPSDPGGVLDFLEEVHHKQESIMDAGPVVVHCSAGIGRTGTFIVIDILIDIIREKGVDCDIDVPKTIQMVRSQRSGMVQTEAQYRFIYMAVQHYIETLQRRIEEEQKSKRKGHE
Description: Enzyme activity assays of SHP2 and PTP1B: The catalytic activity of SHP2 catalytic domain and PTP1B were monitored using the fluorogenic substrate DiFMUP (6,8‐difluoro‐4‐methylumbelliferyl phosphate). Phosphatase reactions were performed at room temperature in 384‐well black plate, clear flat bottom, low flange, non‐binding surface (Corning, Cat# 3766) using a final volume of 20 μL and the following assay buffer conditions: 50 mM MOPS, pH=6.5, 200 mM NaCl, 50 μM TCEP, 0.03 % Tween‐20 (freshly added prior to each measurement). Test compounds were dissolved in DMSO or buffer at stock concentrations of 50, 20 or 10 mM and serially diluted. Enzyme (5 nM PTP1B or 2.5 nM SHP2 catalytic domain) and different concentrations of the tested compounds were incubated in buffer for 30–60 min at room temperature. […] Enzymatic reactions were started by adding DiFMUP (Invitrogen, cat# D6567) concentrations matching the experimentally determined KM values of the enzymes of 67 μM (PTP1B) or 72 μM (SHP2). Samples were excited at a wavelength of 360 nm and emitted fluorescence was recorded at 460 for 10 min using a microplate reader (infinite M1000 Pro, Tecan). Initial slope of fluorescence was determined in triplicate and IC50 values were calculated with GraphPad Prism 5. Determined IC50 values were converted into the corresponding KI values applying the Cheng Prusoff equation KI =IC50 /(1+[S]/KM ).

[3] = biological target: T3, SHP2 (Homo sapiens, UniProt Q06124); assay: Determination of KI using Michaelis-Menten kinetics; format: biochemical
T3 construct: catalytic domain of human SHP2 (amino acids 225–541); His10 (N); made in house; host or cells: E. coli B21 (DE3)
T3 sequence (Q06124 225-541): T2 sequence (Q06124 225-541)
Description: as §1
Determination of KI values using Michaelis-Menten kinetics
The assays for the determination of KI values were performed as described under the same conditions as mentioned in the main paper. The initial velocities of the enzymatic reaction inhibited by compound 21 were determined using four different inhibitor concentrations (0, 75, 100 and 150 nM) and four different substrate concentrations (100, 50, 25 and 12.5 µM).
Fluorescence was monitored over 10 min, during which the increase in fluorescence was linear. Initial velocities were calculated and were plotted as a function of the substrate concentration. The inhibition constant KI was determined using Michaelis-Menten kinetics applying GraphPad Prism 9 (Supplementary Figure 31). The obtained data were fitted to three different inhibition models, namely competitive, uncompetitive, and non-competitive inhibition.
The best fit was obtained for the competitive inhibition mode, resulting in the highest correlation […]
Supplementary Figure 31. Michaelis-Menten plots of compound 21 using inhibitor […]
Table 2. Results of Michaelis-Menten plots for different modes of inhibition of compound 21 (competitive, uncompetitive and non-competitive inhibition).
Inhibition model Competitive Uncompetitive Non-competitive
(1 picture or pasted object on this page, not shown here)

[4] = test system: HGF‐induced tyrosine phosphorylation of ERK 1/2 in HeLa cells; assay: Western blot of p-ERK in HGF-stimulated HeLa cells; format: cell-based; details: 1 h treatment
Description: Cellular experiments: HeLa cells were cultivated in DMEM buffer with 10 % FCS in 75 cm^2 cell culture flasks at 37 °C, 5 % CO2. At confluency of about 75 %, cells were seeded in a density of 250,000 cells/mL in 6‐well plates and incubated for 24 h. Subsequently, medium was removed and replaced by DMEM buffer with 0.1 % BSA (1 mL per well) and incubated for another 16 h. Hepatocyte growth factor (HGF, 20 ng/well) and test compounds in different final concentrations (1 μL, in DMSO) were added. Control wells received the same amount of DMSO (final concentration 0.1 %) or no addition. Plates were incubated for 1 h, then washed with cold PBS and shaken with lysis buffer (mPer reagent ThermoScientific # 78501 with 1 mM NaF, 2 mM Na3VO4, 25× protease inhibitor) for 5 min. Cell lysates were transferred to Eppendorf cups and centrifuged at 4 °C with 10,000 g for 10 min. […] The blot was incubated with anti‐phospo‐ERK as primary antibody (Cell Signaling # 9106, dilution 1 : 2000 in TBS‐Tween/ 2 % BSA) overnight at 4 °C, washed 3×5 min with TBS‐Tween, and incubated with anti‐mouse IgG‐hrp as secondary antibody (Santa Cruz # sc2031, 1 : 6000 in TBS‐ Tween/ 2 % BSA, RT, 1.5 h). The blot was again washed 3×5 min with TBS‐Tween and imaged with the ECL system (ThermoScientific # 34080) at Syngene PXi Imager. From the same lysis sample, under the same conditions, ERK 1/2 and β‐tubulin were blotted. For β‐tubulin, the antibody incubation time was adjusted to 2 h at RT.

CC(=O)N[C@@H](CC(=O)O)C(=O)N[C@@H](C)C(=O)N[C@@H](CC(=O)O)C(=O)N[C@@H](CCC(=O)O)C(=O)N[C@@H](Cc1ccc(C(F)(F)P(=O)(O)O)cc1)C(=O)N[C@@H](CC(C)C)C(N)=O [Compound 2, Ac-DADE-(PDFM-F)-L-NH2, reference compound] (Ac-DADE[F2Pmp]L-NH2)
Ki ([1]; read-out: KI PTP1B): 1.4 ± 0.4 µM

CC(=O)N[C@@H](CC(=O)O)C(=O)N[C@@H](C)C(=O)N[C@@H](CC(=O)O)C(=O)N[C@@H](CCC(=O)O)C(=O)NC(CNc1ccc(CC(=O)O)cc1)C(=O)N[C@@H](CC(C)C)C(N)=O (stereo partly drawn) [Compound 15] (Ac-DADE[ξDap](X1)L-NH2)
Ki ([1]; read-out: KI PTP1B): 138 ± 21 µM

CC(=O)N[C@@H](CC(=O)O)C(=O)N[C@@H](C)C(=O)N[C@@H](CC(=O)O)C(=O)N[C@@H](CCC(=O)O)C(=O)NC(CNc1ccc(OCC(=O)O)cc1)C(=O)N[C@@H](CC(C)C)C(N)=O (stereo partly drawn) [Compound 16] (Ac-DADE[ξDap](X2)L-NH2)
Ki ([1]; read-out: KI PTP1B): 213 ± 21 µM

CC(=O)N[C@@H](CC(=O)O)C(=O)N[C@@H](C)C(=O)N[C@@H](CC(=O)O)C(=O)N[C@@H](CCC(=O)O)C(=O)NC(CC1C(=O)NC(=O)NC1=O)C(=O)N[C@@H](CC(C)C)C(N)=O (stereo partly drawn) [Compound 17] (Ac-DADE[X3]L-NH2)
Ki [1]: 123 ± 16 µM

CC(=O)N[C@@H](CC(=O)O)C(=O)N[C@@H](C)C(=O)N[C@@H](CC(=O)O)C(=O)N[C@@H](CCC(=O)O)C(=O)N[C@@H](CNc1ccc(NS(=O)(=O)C(F)(F)F)cc1)C(=O)N[C@@H](CC(C)C)C(N)=O [Compound 18] (Ac-DADE[Dap](X4)L-NH2)
Ki ([1]; read-out: KI PTP1B): 202 ± 21 µM

O=C(O)Cc1ccc(N/N=C2\C(=O)N(c3ccc([N+](=O)[O-])cc3)N=C2c2ccc([N+](=O)[O-])cc2)cc1 [Compound 21, (Z)‐2‐(4‐(2‐(1,3‐Bis‐(4‐nitrophenyl)‐5‐oxo‐1,5‐dihydro‐4H‐pyrazol‐4‐ylidene)‐hydrazinyl)‐phenyl)‐acetic acid]
Ki [2]: 0.079 µM | Ki ([3]; Michaelis-Menten kinetics at different substrate concentrations, competitive model, read-out: KI SHP2 (Table 2, footnote b) (converted)): 0.032 µM | Mode of inhibition of SHP2 ([3]; best fit among competitive, uncompetitive, non-competitive models): competitive inhibitor; also recorded: competitive mode of inhibition | KI by Michaelis-Menten kinetics, uncompetitive model ([3]; inhibitor 0, 75, 100, 150 nM, DiFMUP 100, 50, 25, 12.5 µM, R2 0.8637): 0.0084 µM | Ki ([3]; inhibitor 0, 75, 100, 150 nM, DiFMUP 100, 50, 25, 12.5 µM, R2 0.8991, read-out: KI by Michaelis-Menten kinetics, non-competitive model): 0.0465 µM | Ki ([3]; inhibitor 0, 75, 100, 150 nM, DiFMUP 100, 50, 25, 12.5 µM, best fit, R2 0.9007, read-out: KI by Michaelis-Menten kinetics, competitive model): 0.032 µM | Effect on HGF‐induced tyrosine phosphorylation of ERK 1/2 ([4]; Western blot, DMSO control): decreased | Concentration giving (complete) dephosphorylation of Erk / inhibition of Erk phosphorylation ([4]; HGF 20 ng/well, Western blot p-ERK): 6.25 µM
